US20240374546A1, “USES AND METHODS FOR PROMOTING INCREASED MITOCHONDRIAL MASS AND FUNCTION” (Brightseed, Inc., priority 2022, published 2024)

Columns and labels:
palmitate-loaded cells = assay: Fat clearance from palmitate-loaded cells; assay type: cell-based; conditions: in vitro
HNF4α [1] = target: T1, HNF4α (Homo sapiens, UniProt P41235); assay: Cell-based human insulin promoter reporter assay sensitive to HNF4α activity
T1 sequence (P41235 1-474): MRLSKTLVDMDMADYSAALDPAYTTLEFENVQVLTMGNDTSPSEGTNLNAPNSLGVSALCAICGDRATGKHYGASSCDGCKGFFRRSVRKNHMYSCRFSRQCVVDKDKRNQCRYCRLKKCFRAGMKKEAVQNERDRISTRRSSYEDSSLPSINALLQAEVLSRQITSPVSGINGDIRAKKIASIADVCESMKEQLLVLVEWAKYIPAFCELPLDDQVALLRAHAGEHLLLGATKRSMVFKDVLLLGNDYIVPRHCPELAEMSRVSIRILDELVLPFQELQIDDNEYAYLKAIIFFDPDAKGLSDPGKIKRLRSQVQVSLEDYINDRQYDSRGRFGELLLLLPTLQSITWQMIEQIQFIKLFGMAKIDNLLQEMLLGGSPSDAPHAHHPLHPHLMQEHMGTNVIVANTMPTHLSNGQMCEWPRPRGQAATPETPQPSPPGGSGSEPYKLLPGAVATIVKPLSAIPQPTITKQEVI
Excerpt: HNF4α is a nuclear receptor transcription factor that controls the expression of downstream genes that are important in multiple aspects of cellular metabolism. The classical view of HNF4α has been that its ligand binding pocket (LBP) is constitutively occupied by a fatty acid that plays a structural rather than regulatory role. However, it has been shown recently that the fatty acids in the HNF4α LBP are exchangeable in the context of full length HNF4α, particularly inside the cell. […] Using the assay in high-throughput screening, it was discovered HNF4α antagonists and more recently agonists. […] Previously, it was shown that intraperitoneal (IP) administration of NCT reversed hepatic steatosis in obese mice fed a high fat diet through a previously unsuspected pathway involving regulation by HNF4α of dihydroceramide synthesis.

HNF4α [2] = target: T1, HNF4α; conditions: cited from earlier work

| SMILES | fat clearance from palmitate-loaded cells (palmitate-loaded cells) | HNF4α agonist activity (HNF4α [1]) | HNF4α activator activity of known drugs (HNF4α [2]) |
| --- | --- | --- | --- |
| COc1cc(/C=C/C(=O)NCCc2ccc(O)cc2)ccc1O [NFT, N-transferuloyltyramine] | induced fat clearance | strong HNF4α agonists |  |
| CCN(CCCc1ccccc1)CCCc1ccccc1 [alverine] |  |  | weak HNF4α activators |
| CC(Cc1cccc(C(F)(F)F)c1)NCCOC(=O)c1ccccc1 (stereo not shown) [benfluorex] |  |  | weak HNF4α activators |
